Assay results reported in PubChem BioAssay (NCI).
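Values below derive from 48-hour exposures of cells grown in 96-well plates, with endpoints linearly interpolated between the two concentrations bracketing the appropriate inhibition level. TGI marks complete inhibition of growth.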

Key:
Experiment in all cases: growth of human tumour cells (NCI), 48 h
HCT-116 colon = system: HCT-116 colon
DU-145 prostate = system: DU-145 prostate
HT29 colon = system: HT29 colon
IGROV1 ovarian = system: IGROV1 ovarian
LOX IMVI melanoma = system: LOX IMVI melanoma
NCI/ADR-RES ovarian = system: NCI/ADR-RES ovarian
SF-539 CNS = system: SF-539 CNS
NCI-H522 lung = system: NCI-H522 lung
COLO 205 colon = system: COLO 205 colon
A549 NSCLC = system: A549 NSCLC
KM12 colon = system: KM12 colon
SK-MEL-5 melanoma = system: SK-MEL-5 melanoma
M14 melanoma = system: M14 melanoma
SK-OV-3 ovarian = system: SK-OV-3 ovarian
OVCAR-8 ovarian = system: OVCAR-8 ovarian
SF-295 CNS = system: SF-295 CNS
MDA-N = system: MDA-N
RXF 393 renal = system: RXF 393 renal
UACC-257 melanoma = system: UACC-257 melanoma
CAKI-1 renal = system: CAKI-1 renal
CCRF-CEM leukemia = system: CCRF-CEM leukemia
BT-549 breast = system: BT-549 breast
OVCAR-3 ovarian = system: OVCAR-3 ovarian
HL-60(TB) leukemia = system: HL-60(TB) leukemia
MDA-MB-435 = system: MDA-MB-435
SR leukemia = system: SR leukemia
U251 CNS = system: U251 CNS
UACC-62 melanoma = system: UACC-62 melanoma
SK-MEL-2 melanoma = system: SK-MEL-2 melanoma
SK-MEL-28 melanoma = system: SK-MEL-28 melanoma
MCF7 breast = system: MCF7 breast
MOLT-4 leukemia = system: MOLT-4 leukemia
MDA-MB-231 breast = system: MDA-MB-231 breast
HOP-62 NSCLC = system: HOP-62 NSCLC
HCC-2998 colon = system: HCC-2998 colon
T-47D breast = system: T-47D breast
A498 renal = system: A498 renal
SN12C renal = system: SN12C renal
TK-10 renal = system: TK-10 renal
UO-31 renal = system: UO-31 renal
HS 578T breast = system: HS 578T breast
SW-620 colon = system: SW-620 colon
PC-3 prostate = system: PC-3 prostate
ACHN renal = system: ACHN renal
K-562 leukemia = system: K-562 leukemia
SNB-75 CNS = system: SNB-75 CNS
RPMI-8226 leukemia = system: RPMI-8226 leukemia
NCI-H460 lung = system: NCI-H460 lung
SF-268 CNS = system: SF-268 CNS
OVCAR-5 ovarian = system: OVCAR-5 ovarian
EKVX NSCLC = system: EKVX NSCLC
786-0 renal = system: 786-0 renal
OVCAR-4 ovarian = system: OVCAR-4 ovarian
HCT-15 colon = system: HCT-15 colon
NCI-H23 lung = system: NCI-H23 lung
MALME-3M melanoma = system: MALME-3M melanoma
NCI-H226 lung = system: NCI-H226 lung
HOP-92 NSCLC = system: HOP-92 NSCLC
SNB-19 CNS = system: SNB-19 CNS

## Fc1cc(C2=C[C@H](c3ccc4c(c3)OCO4)NC(=S)N2)c(Cl)cc1Cl
HCT-116 colon
  TGI: > 100 µM
DU-145 prostate
  TGI: > 100 µM
HT29 colon
  TGI: > 100 µM
IGROV1 ovarian
  TGI: > 100 µM
LOX IMVI melanoma
  TGI: > 100 µM
NCI/ADR-RES ovarian
  TGI: > 100 µM
SF-539 CNS
  TGI: > 100 µM
NCI-H522 lung
  TGI: > 100 µM
COLO 205 colon
  TGI: 50.3 µM
A549 NSCLC
  TGI: > 100 µM
KM12 colon
  TGI: > 100 µM
SK-MEL-5 melanoma
  TGI: 25.9 µM
M14 melanoma
  TGI: > 100 µM
SK-OV-3 ovarian
  TGI: > 100 µM
OVCAR-8 ovarian
  TGI: > 100 µM
SF-295 CNS
  TGI: > 100 µM
MDA-N
  TGI: > 100 µM
RXF 393 renal
  TGI: > 100 µM
UACC-257 melanoma
  TGI: 83.6 µM
CAKI-1 renal
  TGI: > 100 µM
CCRF-CEM leukemia
  TGI: > 100 µM
BT-549 breast
  TGI: > 100 µM
OVCAR-3 ovarian
  TGI: > 100 µM
HL-60(TB) leukemia
  TGI: 0.23 µM
MDA-MB-435
  TGI: > 100 µM
SR leukemia
  TGI: > 100 µM
U251 CNS
  TGI: > 100 µM
UACC-62 melanoma
  TGI: > 100 µM
SK-MEL-2 melanoma
  TGI: 62.7 µM
SK-MEL-28 melanoma
  TGI: > 100 µM
MCF7 breast
  TGI: > 100 µM
MOLT-4 leukemia
  TGI: > 100 µM
MDA-MB-231 breast
  TGI: > 100 µM
HOP-62 NSCLC
  TGI: > 100 µM
HCC-2998 colon
  TGI: 75.4 µM
T-47D breast
  TGI: > 100 µM
A498 renal
  TGI: 79 µM
SN12C renal
  TGI: 90.8 µM
TK-10 renal
  TGI: 96.4 µM
UO-31 renal
  TGI: > 100 µM
HS 578T breast
  TGI: > 100 µM
SW-620 colon
  TGI: > 100 µM
PC-3 prostate
  TGI: 85.8 µM
ACHN renal
  TGI: > 100 µM
K-562 leukemia
  TGI: > 100 µM
SNB-75 CNS
  TGI: 91.1 µM
RPMI-8226 leukemia
  TGI: > 100 µM
NCI-H460 lung
  TGI: > 100 µM
SF-268 CNS
  TGI: > 100 µM
OVCAR-5 ovarian
  TGI: > 100 µM
EKVX NSCLC
  TGI: > 100 µM
786-0 renal
  TGI: > 100 µM
OVCAR-4 ovarian
  TGI: > 100 µM
HCT-15 colon
  TGI: > 100 µM
NCI-H23 lung
  TGI: > 100 µM
MALME-3M melanoma
  TGI: 95.4 µM
NCI-H226 lung
  TGI: > 100 µM
HOP-92 NSCLC
  TGI: > 100 µM
SNB-19 CNS
  TGI: > 100 µM

## CC(C)(C)C1CCC2c3c([nH]c4ccccc34)C3C(=O)N(c4cccc(Cl)c4)C(=O)C3C2C1 (stereo not drawn)
HCT-116 colon
  TGI: 19.3 µM
DU-145 prostate
  TGI: 33.2 µM
HT29 colon
  TGI: 20 µM
IGROV1 ovarian
  TGI: 45.7 µM
LOX IMVI melanoma
  TGI: 20.8 µM
NCI/ADR-RES ovarian
  TGI: 34 µM
SF-539 CNS
  TGI: 35.5 µM
NCI-H522 lung
  TGI: 34.5 µM
COLO 205 colon
  TGI: 35.8 µM
A549 NSCLC
  TGI: > 55.8 µM
KM12 colon
  TGI: 14.5 µM
SK-MEL-5 melanoma
  TGI: 26.3 µM
M14 melanoma
  TGI: 28.3 µM
SK-OV-3 ovarian
  TGI: 63.2 µM
OVCAR-8 ovarian
  TGI: > 55.6 µM
SF-295 CNS
  TGI: 44.7 µM
MDA-N
  TGI: 24.7 µM
RXF 393 renal
  TGI: 22.6 µM
UACC-257 melanoma
  TGI: 29.6 µM
CAKI-1 renal
  TGI: 53.2 µM
CCRF-CEM leukemia
  TGI: > 91.8 µM
BT-549 breast
  TGI: 41.1 µM
OVCAR-3 ovarian
  TGI: 33.3 µM
HL-60(TB) leukemia
  TGI: 13 µM
MDA-MB-435
  TGI: 48.9 µM
SR leukemia
  TGI: > 36 µM
U251 CNS
  TGI: 38.4 µM
UACC-62 melanoma
  TGI: 33.4 µM
SK-MEL-2 melanoma
  TGI: 35.1 µM
SK-MEL-28 melanoma
  TGI: 32 µM
MCF7 breast
  TGI: 4.22 µM
MOLT-4 leukemia
  TGI: 13 µM
MDA-MB-231 breast
  TGI: 29.6 µM
HOP-62 NSCLC
  TGI: 18 µM
HCC-2998 colon
  TGI: 12.4 µM
T-47D breast
  TGI: 48.7 µM
A498 renal
  TGI: 53.7 µM
SN12C renal
  TGI: 15.6 µM
TK-10 renal
  TGI: 39 µM
UO-31 renal
  TGI: 15.1 µM
HS 578T breast
  TGI: > 68.1 µM
SW-620 colon
  TGI: 23.2 µM
PC-3 prostate
  TGI: 36.9 µM
ACHN renal
  TGI: 44.2 µM
K-562 leukemia
  TGI: > 49.6 µM
SNB-75 CNS
  TGI: 50.1 µM
RPMI-8226 leukemia
  TGI: > 72.2 µM
NCI-H460 lung
  TGI: 17.7 µM
SF-268 CNS
  TGI: 32.4 µM
OVCAR-5 ovarian
  TGI: 30.3 µM
EKVX NSCLC
  TGI: 43.7 µM
786-0 renal
  TGI: 22 µM
OVCAR-4 ovarian
  TGI: 58.1 µM
HCT-15 colon
  TGI: 42.6 µM
NCI-H23 lung
  TGI: 25.3 µM
MALME-3M melanoma
  TGI: 32.4 µM
NCI-H226 lung
  TGI: 39.9 µM
HOP-92 NSCLC
  TGI: 18.9 µM
SNB-19 CNS
  TGI: > 100 µM
